Experiment [1] has as its system Lactobacillus delbrueckii STYM1 strain pyruvate oxidase (L. delbrueckii Pox, LDBND_1487), wild type, full-length. Description: Phospholipid activation assay of L. delbrueckii Pox. As to conditions: various concentrations; 16:0-18:1 acyl chains. The class given is biochemical. The protocol:
(§1) Pyruvate oxidase enzyme or pyruvate:oxygen 2-oxidoreductase (phosphorylating) (EC 1.2.3.3) was derived from Lactobacillus delbrueckii STYM1 strain (16).
Pyruvate oxidase activity was measured as previously described (16). Briefly, 50 mM sodium pyruvate, 15 μM FAD, 300 μM TPP, 0.03% N-ethyl-N-(2-hydroxy-3-sulfopropyl)-m-toluidine (sigma), 0.015% 4-aminoantipyrine (sigma), and 33 μg/mL horseradish peroxidase (Sigma) were combined with purified pox enzyme. After a 10-minute incubation at room temperature, sodium phosphate pH 5.6 was added to 50 mM final concentration to initiate the reaction. The formation of a quinoneimine dye at 25° C. was measured by an increase in absorbance at 550 nm and the specific activity was calculated as described. 1 unit of Pox activity is defined as the production of 1 μmol of hydrogen peroxide per minute and this was converted to μM/min for kinetic analysis.
Phosphotidylethanolamine (16:0-18:1) (Avanti Lipids), Phosphotidylcholine (16:0-18:1) (Avanti Lipids), and Phosphotidylglycerol (16:0-18:1) (Avanti Lipids) dissolved in chloroform were evaporated under a steady stream of argon gas and dried in a vacuum desiccator for 1 hour to evaporate residual chloroform. The phospholipids were resuspended in 20 mM Bis-Tris 150 mM NaCl pH 6 and incubated at 37° C. with shaking at 225 rpm for 30 minutes. The suspension was vortexed for 30 seconds and vortexed immediately prior to each use.
(§2) Phospholipids were added to the pyruvate oxidase assay mixture at various concentrations and enzyme activity was measured as described above. Fold activity was calculated relative to enzyme activity without phospholipid.

Experiment [2] deals with Lactobacillus delbrueckii STYM1 pyruvate oxidase variant Δ32 (C-terminal truncation lacking the last 32 amino acids). Description: Phospholipid activation assay of L. delbrueckii Pox Δ32. Type of experiment: biochemical. As to conditions: various PE concentrations.
Excerpt: The C-terminus of E. coli Pox is important for lipid activation of the enzyme (13). To test if the C-terminus was important in the L. delbrueckii Pox, a C-terminal truncation was generated that lacked the last 32 amino acids. The enzyme was purified and tested for its ability to be activated by PE (FIG. 18A). […] This is consistent with the E. coli pox truncation having greater activity partially mimicking lipid activation (20). Furthermore, the Δ32 enzyme was only weakly activated by PE to approximately 2-fold greater than the enzyme without PE compared to an approximately 6-fold activation with the full-length enzyme (FIG. 15B and FIG. 18C).
The PCR product was ligated into the pFLAG-CTC vector (Sigma, St. Louis, MO) using the NdeI and XhoI restriction sites. […] The construct was transformed into LOBSTR E. coli, in which the L. delbrueckii Δ32 Pox was expressed as a C-terminal His6-Pox. […] Protein purity was assessed by SDS-PAGE and Coomassie staining.
Pyruvate oxidase activity was measured as previously described (16). […] The formation of a quinoneimine dye at 25° C. was measured by an increase in absorbance at 550 nm and the specific activity was calculated as described. […]
as §2

The subject of experiment [3] is Lactobacillus delbrueckii STYM1 strain pyruvate oxidase (L. delbrueckii Pox, LDBND_1487), wild type. Description: PE co-sedimentation. Type of experiment: binding. As to conditions: 1 mM PE, 50 mM pyruvate, 300 μM TPP, 15 μM FAD, 30 minutes at room temperature. The protocol:
as §1
PE was prepared as described above for activation experiments. 3 μg of L. delbrueckii Pox was incubated with 50 mM pyruvate, 300 μM TPP, and 15 μM FAD with either 1 mM PE or no PE for 30 minutes at room temperature. The PE fraction was precipitated by centrifugation at 16,000×g for 20 minutes at 4° C. The supernatant was aspirated as the soluble fraction and the PE pellet was resuspened in an equal amount of buffer. The fractions were visualized by Coomassie staining after SDS-PAGE.

Experiment [4] deals with Lactobacillus delbrueckii STYM1 strain pyruvate oxidase (L. delbrueckii Pox, LDBND_1487), wild type, C-terminal His6. Briefly: Pyruvate oxidase activity assay and kinetic parameters (oxidative coupling, H2O2 production, A550). Type of experiment: biochemical. To be noted: for Km: 25° C. The protocol: The C-terminal primer encoded a glycine-serine linker followed by a 6-histidine tag and a stop codon. The PCR product was ligated into the pFLAG-CTC vector (Sigma) using the NdeI and XhoI restriction sites and transformed into DH5α E. coli resulting in the plasmid pFLAG-CTC_Pox. The construct was confirmed by PCR and sequencing. pFLAG-CTC_Pox was transformed into LOBSTR E. coli in which Pox was expressed as a C-terminal His6-Pox. A 6 mL starter culture was incubate at 37° C. overnight in LB supplemented with 100 μg/mL of ampicillin. The starter culture was diluted 1:100 into 40 mL of LB supplemented with 100 μg/mL of ampicillin and grown at 37° C. until the OD600 reached 0.4-0.8. The temperature was then shifted to 26° C. and the cells were incubated with 1 mM isopropyl-β-D-thiogalactopyranoside (IPTG) for 20 hours. The cells were harvested by centrifugation at 3,200×g for 10 minutes, resuspended in 1 mL PBS EDTA-free cOmplete protease inhibitor cocktail (Roche), and lysed by sonication on ice, as described above. […] Protein purity was assessed by SDS-PAGE and Coomassie staining.
Pyruvate oxidase activity of recombinant Pox was assessed by an oxidative coupling reaction. […] Immediately upon addition of purified Pox, the formation of a quinoneimine dye was measured by an increase in the absorbance at 550 nm which was recorded every 30 seconds at room temperature. […] Pox activity is assessed by determining the change in absorbance at 550 nm per minute. […] Activity was determined according to the following equation: specific activity=[(ΔA550/min)(dilution factor)(total reaction volume)]/[(36.88)(0.5)(path length)(sample volume)(C)], where the total reaction volume is 1 ml, the millimolar extinction coefficient of quinoneimine dye is 36.88, the factor of 0.5 was determined based on the fact that 1 mol of hydrogen peroxide produces 0.5 mol of quinoneimine dye, the light path length is 1 cm, the sample volume is 0.1 ml, and C is the concentration of undiluted enzyme in mg/ml. […]
Pyruvate oxidase activity was measured as previously described (16). […]

Read-outs that look alike come from different tables or passages of the source.

As to `CCCCCCCC/C=C\CCCCCCCC(=O)O[C@H](COC(=O)CCCCCCCCCCCCCCC)COP(=O)(O)OCCN` [PE, Phosphotidylethanolamine (16:0-18:1)], in experiment [1], the “catalytic activation by phospholipid (in words)” value (“catalytic activation” below) is listed as “catalytically activated specifically by PE”. Besides, in experiment [2], the “fold activity relative to the enzyme without PE” value is listed as “approximately 2 fold”. Also, the “co-precipitation with PE” value in experiment [3] is listed as “did not co-precipitate with PE”. Moreover, the “increase in kcat relative to the enzyme in the absence of PE” value in experiment [4] (7.2 mM PE vs no PE) is on record as “approximately 18 fold”.

Consider `CCCCCCCC/C=C\CCCCCCCC(=O)O[C@H](COC(=O)CCCCCCCCCCCCCCC)COP(=O)(O)OCC(O)CO` (some centres unmarked) [PG, Phosphotidylglycerol (16:0-18:1)], for which, in experiment [1], the “catalytic activation” value is recorded as “not PC or PG”.

The Km is the substrate concentration at which the rate is half of its maximum. In the case of phosphate, the Km in experiment [4] (with 7.2 mM PE, 170 nM enzyme, read-out: km for phosphate (with PE)) came to 1.25 mM; in experiment [4] (without PE, 1.76 μM enzyme, pyruvate 50 mM, pH 5.6, read-out: km for phosphate), 8 mM.

As for `CCCCCCCC/C=C\CCCCCCCC(=O)O[C@H](COC(=O)CCCCCCCCCCCCCCC)COP(=O)([O-])OCC[N+](C)(C)C` [PC, Phosphotidylcholine (16:0-18:1)], in experiment [1], the “catalytic activation” value is given as “not PC or PG”.

The values are drawn from patent US12472213B2, “Strains of Lactobacillus delbrueckii which inhibit Porphyromonas gingivalis” (Trustees of Tufts College, priority 2019, dated 2025).
